From patent US8735395B2, “Protease inhibitors” (Medivir AB, priority 2008, dated 2014)

Assays:
[1] = reference markers for the Caco-2 assay; cited from earlier work
human cathepsin L = human cathepsin L (Homo sapiens (Human), UniProt P07711); assay: Cathepsin L Ki; format: biochemical
Description: The procedure above with the following amendments is used for the determination of Ki for cathepsin L.
The enzyme is commercially available human cathepsin L (for example Calbiochem). The substrate is H-D-Val-Leu-Lys-AMC available from Bahcem. The assay buffer is 100 mM sodium acetate 1 mM EDTA, pH5.5) The DMSO stock (10 mM in 100% DMSO) is diluted to 10% in assay buffer. Enzyme is prepared at 5 nM concentration in assay buffer plus 1 mM dithiothreitol just before use. 2 ul of 10 mM inhibitor made up in 100% DMSO is dispensed into row A. 10 μl of 50 μM substrate (=1/200 dilution of 10 mM stock in DMSO, diluted in assay buffer)
(§1) Potential inhibitors are screened using the above assay with variable concentrations of test compound. Reactions were initiated by addition of enzyme to buffered solutions of substrate and inhibitor. Ki values were calculated according to equation 1.

[2] = Metabolic stability in whole blood (CLint); format: in vitro ADME
Description: (§2) Alternatively, an analogous stability assay is carried out in human or monkey whole blood and/or commercially available liver microsomes, such as XEN 025.

[3] = target: human recombinant cathepsin K (Homo sapiens (Human), UniProt P43235); assay: Determination of cathepsin K proteolytic catalytic activity (Ki); format: biochemical
Description: Determination of Cathepsin K Proteolytic Catalytic Activity
Convenient assays for cathepsin K are carried out using human recombinant enzyme, such as that described in PDB.
The recombinant cathepsin K can be expressed in a variety of commercially available expression systems including E coli, Pichia and Baculovirus systems. The purified enzyme is activated by removal of the prosequence by conventional methods.
The enzyme concentration used was 5 nM. The stock substrate solution was prepared at 10 mM in DMSO. Screens were carried out at a fixed substrate concentration of 60 μM and detailed kinetic studies with doubling dilutions of substrate from 250 μM. The total DMSO concentration in the assay was kept below 3%. All assays were conducted at ambient temperature. Product fluorescence (excitation at 390 nm, emission at 460 nm) was monitored with a Labsystems Fluoroskan Ascent fluorescent plate reader. Product progress curves were generated over 15 minutes following generation of AMC product.
as §1
where v0 is the velocity of the reaction, V is the maximal velocity, S is the concentration of substrate with Michaelis constant of KM, and I is the concentration of inhibitor.

[4] = Metabolic stability in liver microsomes (HLM CLint); format: in vitro ADME; settings: human
Description: as §2

human cathepsin S = human cathepsin S (Homo sapiens (Human), UniProt P25774); assay: Cathepsin S Ki determination; format: biochemical
Description: 280 μl/well of 12.5% DMSO are added to rows B-H of two columns of a 96 deep well polypropylene plate. […] 200 μl/well of assay buffer is added to columns 1 and 6. […] Mix row A using a multichannel pipette and double dilute to row G. Mix row H and read in the fluorescent spectrophotometer. […] The second test compound is added to column 6 of the top row, the third to column 1 of the second row etc. Add 1 μl of comparator to column 6 of the bottom row. Mix column 1 and double dilute to column 5. Mix column 6 and double dilute to column 10. Using an 8-channel multistepping pipette set to 5×10 μl, distribute 10 μl/well of substrate to the 384 well assay plate. Distribute the first column of the substrate dilution plate to all columns of the assay plate starting at row A. The tip spacing of the multichannel pipette will correctly skip alternate rows. Distribute the second column to all columns starting at row B. Using a 12-channel multistepping pipette set to 4×10 μl, distribute 10 μl/well of inhibitor to the 384 well assay plate. Distribute the first row of the inhibitor dilution plate to alternate rows of the assay plate starting at A1. The tip spacing of the multichannel pipette will correctly skip alternate columns. […] Mix 20 ml assay buffer and 20 μl 1M DTT. […] Using the a distributor such as a Multidrop 384, add 30 μl/well to all wells of the assay plate and read in fluorescent spectrophotomoter such as an Ascent. Fluorescent readings, (excitation and emission wavelengths 390 nm and 460 nm respectively, set using bandpass filters) reflecting the extent of enzyme cleavage of the fluorescent substrate, notwithstanding the inhibitor, are linear rate fitted for each well. […] Potential inhibitors are screened using the above assay with variable concentrations of test compound. Reactions were initiated by addition of enzyme to buffered solutions of substrate and inhibitor.

[5] = In vivo mouse PK, oral administration (FIG. 1); settings: male C57BI mice, oral 60 μmol/kg in 1% Methocel A4C; compared with Example 2 of WO2008 007107
Description: FIG. 1 depicts plasma concentration against time for male C57BI mice orally administered a compound of the invention or a compound of the prior art.
Various embodiments of the invention will now be described by way of illustration only with reference to the following Examples and FIG. 1 which depicts plasma concentration against time for male C57BI mice orally administered a compound of the invention or a compound of the prior art.

Caco-2 permeability = settings: human
Description: (§3) This experiment measures transport of inhibitors through the cells of the human gastroenteric canal. The assay uses the well known Caco-2 cells with a passage number between 40 and 60.
(§4) The basolateral and the apical wells will contain 1.5 mL and 0.4 mL transport buffer (TB), respectively, and the standard concentration of the tested substances is 10 μM. Furthermore all test solutions and buffers will contain 1% DMSO. Prior to the experiment the transport plates are pre-coated with culture medium containing 10% serum for 30 minutes to avoid nonspecific binding to plastic material. After 21 to 28 days in culture on filter supports the cells are ready for permeability experiments.
(§5) In ASB screening the TB in basolateral well also contains 1% Bovine Serum Albumin.
(§6) 0.5 mL transport buffer (HBSS, 25 mM MES, pH 6.5) is added to the inserts and the cell monolayers equilibrated in the transport buffer system for 30 minutes at 37° C. in a polymix shaker. After being equilibrated to the buffer system the Transepithelial electrical resistance value (TEER) is measured in each well by an EVOM chop stick instrument. […]
(§7) 300 μL will be taken from the basolateral (receiver) wells at each scheduled time point and the post value of TEER is measured at the end the experiment. […]
FAcum is calculated from: […]
(§8) The determination of permeability coefficients (Papp, cm/s) are calculated from: […]

Chain of human recombinant cathepsin K (P43235 115-329): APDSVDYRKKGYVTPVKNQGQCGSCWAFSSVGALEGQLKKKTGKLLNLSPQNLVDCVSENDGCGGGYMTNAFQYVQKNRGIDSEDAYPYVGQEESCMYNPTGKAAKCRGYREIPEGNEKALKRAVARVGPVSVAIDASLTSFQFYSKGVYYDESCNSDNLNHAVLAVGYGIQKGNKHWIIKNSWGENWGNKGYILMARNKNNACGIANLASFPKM
Chain of human cathepsin S (P25774 115-331): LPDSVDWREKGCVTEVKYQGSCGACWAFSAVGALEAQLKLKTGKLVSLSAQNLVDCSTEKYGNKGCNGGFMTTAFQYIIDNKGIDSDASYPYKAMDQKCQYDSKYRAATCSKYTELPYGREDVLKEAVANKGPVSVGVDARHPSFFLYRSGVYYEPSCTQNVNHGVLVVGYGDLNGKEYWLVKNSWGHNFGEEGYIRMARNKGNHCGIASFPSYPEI
Chain of human cathepsin L (P07711 114-333): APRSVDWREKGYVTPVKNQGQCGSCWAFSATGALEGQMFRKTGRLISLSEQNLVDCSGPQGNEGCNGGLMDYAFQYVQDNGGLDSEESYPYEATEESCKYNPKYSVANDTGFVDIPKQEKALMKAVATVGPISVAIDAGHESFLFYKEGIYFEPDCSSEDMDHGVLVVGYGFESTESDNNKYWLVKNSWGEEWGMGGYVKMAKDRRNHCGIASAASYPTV
Description for Caco-2 cells: as §3, §4, §5, §6, §7
FAcum is calculated from: […]
as §8

## N[C@@H](Cc1ccccc1)C(=O)O [L-Phenylalanine]
[1]
  % absorption in man: 100%

## C#C[C@@H]1CN(C(=O)[C@H](CC(C)C)NC(=O)c2ccc(-c3csc(N4CCN(C)CC4)n3)cc2)[C@@H]2C(=O)CO[C@H]12 [Example 1, N-[1-6-(ethynyl-3-oxo-hexahydro-furo[3,2-b]pyrrole-4-carbonyl)-3-methyl-butyl]-4-[2-(4-methyl-piperazin-1-yl)thiazol-4-yl]-benzamide]
Human cathepsin L; Test 1, class symbols
  Ki: 1000 to 5000 nM
Human cathepsin L; Test 2 or unnumbered test
  Ki: 2000 nM
[2]; whole blood
  microsomal CLint: 3 µL/min/mg
[3]; Test 1, class symbols
  Ki: < 50 nM
[3]; Test 2 or unnumbered test
  Ki: 1.6 nM
[4]
  microsomal CLint: 16 µL/min/mg
Human cathepsin S; Test 1, class symbols
  Ki: > 10000 nM
Human cathepsin S; Test 2 or unnumbered test
  Ki: 25000 nM

## C#C[C@@H]1CN(C(=O)[C@H](CC(C)C)NC(=O)c2ccc(-c3csc(N4CCN(C)CC4)n3)c(F)c2)[C@@H]2C(=O)CO[C@H]12 [Example 3, N-[1-6-(ethynyl-3-oxo-hexahydro-furo[3,2-b]pyrrole-4-carbonyl)-3-methyl-butyl]-3-fluoro-4-[2-(4-methyl-piperazin-1-yl)thiazol-4-yl]-benzamide]
Human cathepsin L; Test 1, class symbols
  Ki: 501 to 1000 nM
Human cathepsin L; Test 2 or unnumbered test
  Ki: 1400 nM
[3]; Test 1, class symbols
  Ki: < 50 nM
[3]; Test 2 or unnumbered test
  Ki: 4 nM

## CC(C)C[C@H](NC(=O)c1ccc(-c2csc(N3CCN(C)CC3)n2)cc1)C(=O)N1C[C@@H](C)[C@H]2OCC(=O)[C@H]21 [comparative example]
[2]; calculated from whole blood CLint
  estimated / calculated whole blood half life: little over an hour
[2]; whole blood
  microsomal CLint: 9 µL/min/mg
  whole blood CLint value: 9 µL/min/mg
[4]
  microsomal CLint: 49 µL/min/mg

## CC(C)=C[C@@H]1CN(C(=O)[C@H](CC(C)C)NC(=O)c2ccc(-c3nc(N4CCN(C)CC4)sc3F)cc2)[C@@H]2C(=O)CO[C@H]12 [Example 4, N-[1-6-(dimethylvinyl-3-oxo-hexahydro-furo[3,2-b]pyrrole-4-carbonyl)-3-methyl-butyl]-4-[5-fluoro-2-(4-methyl-piperazin-1-yl)thiazol-4-yl]-benzamide]
Human cathepsin L; Test 2 or unnumbered test
  Ki: 300 nM
[3]; Test 2 or unnumbered test
  Ki: 2.7 nM

## N—((S)-1-((3aS,6R,6aS)-6-methoxy-oxodihydro-2H-furo[3,2-b]pyrrol-4(5H,6H,6aH)-yl)-4-methyl-oxopentan-2-yl)-4-(2-(4-methylpiperazine-1-yl)thiazol-4-yl)benzamide
Caco-2 cells
  papp value: 9e-07 cm/s

## C#C[C@@H]1CN(C(=O)[C@H](CC(C)C)NC(=O)c2ccc(-c3nc(N4CCN(C)CC4)sc3F)cc2)[C@@H]2C(=O)CO[C@H]12 [Example 2, N-[1-6-(ethynyl-3-oxo-hexahydro-furo[3,2-b]pyrrole-4-carbonyl)-3-methyl-butyl]-4-[5-fluoro-2-(4-methyl-piperazin-1-yl)thiazol-4-yl]-benzamide]
[5]
  in vivo exposure (Cmax or AUC): very much greater
Human cathepsin L; Test 1, class symbols
  Ki: 1000 to 5000 nM
Human cathepsin L; Test 2 or unnumbered test
  Ki: 1700 nM
Caco-2 permeability
  Papp at 120 min, 10 µM: 9.1 ×10⁻⁶ cm/s
[3]; Test 1, class symbols
  Ki: < 50 nM
[3]; Test 2 or unnumbered test
  Ki: 1.1 nM
Human cathepsin S; Test 1, class symbols
  Ki: > 10000 nM
Human cathepsin S; Test 2 or unnumbered test
  Ki: 21000 nM

## OC[C@@H](O)[C@@H](O)[C@H](O)[C@H](O)CO [Mannitol]
[1]
  % absorption in man: 16%

## CN(Cc1cnc2nc(N)nc(N)c2n1)c1ccc(C(=O)N[C@@H](CCC(=O)O)C(=O)O)cc1 [Methotrexate]
[1]
  % absorption in man: 20%

## CC(C)C[C@H](NC(=O)c1ccc(-c2csc(N3CCN(C)CC3)n2)cc1)C(=O)N1C[C@@H](C=C(Br)Br)[C@H]2OCC(=O)[C@H]21 [Ref Ex 9]
Human cathepsin S; Test 2 or unnumbered test
  Ki: 6100 nM
